target: T1, Ectonucleotide pyrophosphatase/phosphodiesterase family member 1 (Homo sapiens) (UniProt P22413); assay: Inhibition of ENPP1 (unknown origin) at 10 uM relative to control; settings: not given
T1 sequence (whole entry): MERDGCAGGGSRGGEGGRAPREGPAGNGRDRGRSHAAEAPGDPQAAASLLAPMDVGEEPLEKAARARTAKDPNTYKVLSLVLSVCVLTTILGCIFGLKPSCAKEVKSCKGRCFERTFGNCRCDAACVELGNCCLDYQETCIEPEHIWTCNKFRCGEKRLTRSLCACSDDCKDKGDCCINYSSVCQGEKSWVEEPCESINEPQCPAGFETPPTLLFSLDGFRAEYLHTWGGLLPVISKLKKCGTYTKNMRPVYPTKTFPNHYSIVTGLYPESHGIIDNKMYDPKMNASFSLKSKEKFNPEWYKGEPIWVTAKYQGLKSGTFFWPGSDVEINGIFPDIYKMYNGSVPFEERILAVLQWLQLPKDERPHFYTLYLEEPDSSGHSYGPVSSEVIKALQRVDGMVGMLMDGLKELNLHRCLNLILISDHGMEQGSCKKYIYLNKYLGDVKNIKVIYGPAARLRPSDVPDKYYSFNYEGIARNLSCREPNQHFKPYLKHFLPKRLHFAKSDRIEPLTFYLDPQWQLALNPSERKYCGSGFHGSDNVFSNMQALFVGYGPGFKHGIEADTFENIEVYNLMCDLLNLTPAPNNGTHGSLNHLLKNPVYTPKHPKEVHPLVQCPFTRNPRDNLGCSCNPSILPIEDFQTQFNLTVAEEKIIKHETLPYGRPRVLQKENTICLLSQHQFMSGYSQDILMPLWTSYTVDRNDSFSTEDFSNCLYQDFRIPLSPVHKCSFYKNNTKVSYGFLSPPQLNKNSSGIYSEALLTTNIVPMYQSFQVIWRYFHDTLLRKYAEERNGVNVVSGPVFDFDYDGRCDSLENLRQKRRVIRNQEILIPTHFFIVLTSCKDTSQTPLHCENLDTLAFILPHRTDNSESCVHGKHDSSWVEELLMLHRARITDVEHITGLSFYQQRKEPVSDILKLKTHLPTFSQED

Row | inhibition [%] | SMILES
1 | 99 | CN1Cc2c(-c3ccc(CNS(N)(=O)=O)c(F)c3)ccnc2NC1=O
2 | 95 | CN1Cc2c(-c3cccc(NS(N)(=O)=O)c3)ccnc2NC1=O
3 | 96 | CN1Cc2c(ncnc2-c2ccc(CNS(N)(=O)=O)c(F)c2)NC1=O
4 | 100 | CN1Cc2c(ncnc2N2CCC3(CC2)CCN(S(N)(=O)=O)C3)NC1=O
5 | 96 | CN1Cc2c(ncnc2N2CCC(CCNS(N)(=O)=O)CC2)NC1=O
6 | 35 | NS(=O)(=O)NCc1ccc(-c2ccnc3c2CN(C2CC2)C(=O)N3)cc1
7 | 93 | CN1Cc2c(ncnc2N2CCC(C)(CCNS(N)(=O)=O)CC2)NC1=O
8 | 100 | CN1Cc2c(ncnc2N2CCC(C)(CNS(N)(=O)=O)CC2)NC1=O
9 | 98 | CN1Cc2c(ncnc2N2CCC(C)(NS(N)(=O)=O)CC2)NC1=O
10 | 80 | CN1Cc2c(-c3ccc(CN(C)S(N)(=O)=O)cc3)ccnc2NC1=O
11 | 96 | CN1Cc2c(-c3ccc(CNS(N)(=O)=O)cc3)ccnc2N(C)C1=O
12 | 99 | CN1Cc2c(ncnc2-c2cccc(CNS(N)(=O)=O)c2)NC1=O
13 | 96 | CN1Cc2c(-c3cccc(CNS(N)(=O)=O)c3)ccnc2NC1=O
14 | 68 | Cc1ccc(S(=O)(=O)NCc2cccc(-c3ncnc4c3CN(C)C(=O)N4)c2)cc1
15 | 100 | CN1Cc2c(NCc3ccc(NS(N)(=O)=O)cc3)ncnc2NC1=O
16 | 4 | Cc1ccc(S(=O)(=O)NCc2cccc(-c3ccnc4c3CN(C)C(=O)N4)c2)cc1
17 | 0 | CN1Cc2c(-c3ccc(CNS(N)(=O)=O)cc3)ccnc2N(Cc2ccccc2)C1=O
18 | 100 | CN1Cc2c(-c3ccc(CNS(N)(=O)=O)cc3)ccnc2NC1=O
19 | 20 | NS(=O)(=O)NCc1cccc(-c2ccnc3c2CNC(=O)N3)c1
20 | 67 | CN1Cc2c(ncnc2Nc2ccc(NS(N)(=O)=O)cc2)NC1=O
21 | 93 | CN1Cc2c(ncnc2N2CCC(NS(N)(=O)=O)CC2)NC1=O
22 | 30 | CN1Cc2c(ncnc2-c2cccc(CNS(C)(=O)=O)c2)NC1=O
23 | 100 | CN1Cc2c(ncnc2-c2cccc(NS(N)(=O)=O)c2)NC1=O
24 | 62 | CN1Cc2c(N3CCC(CCNS(N)(=O)=O)CC3)ncnc2N(C)C1=O
25 | 9 | NS(=O)(=O)NCc1ccc(-c2ccnc3c2CN(Cc2ccccc2)C(=O)N3)cc1
26 | 62 | NS(=O)(=O)Nc1cccc(-c2ccnc3c2CN(C2CC2)C(=O)N3)c1
27 | 97 | CN1Cc2c(ncnc2-c2ccc(CNS(N)(=O)=O)cc2)NC1=O
28 | 15 | CN1Cc2c(-c3cccc(CNS(C)(=O)=O)c3)ccnc2NC1=O
29 | 100 | CN1Cc2c(ncnc2N2CCC(CNS(N)(=O)=O)CC2)NC1=O

target: T2, Ectonucleotide pyrophosphatase/phosphodiesterase family member 1 (Homo sapiens, UniProt P22413); assay: Inhibition of ENPP1 (unknown origin); settings: not given
T2 sequence (P22413 whole entry): T1 sequence (whole entry)

Row | IC50 [nM] | SMILES
30 | 32.3 | CN1Cc2c(-c3ccc(CNS(N)(=O)=O)c(F)c3)ccnc2NC1=O
31 | 766 | CN1Cc2c(-c3cccc(NS(N)(=O)=O)c3)ccnc2NC1=O
32 | 916 | CN1Cc2c(ncnc2-c2ccc(CNS(N)(=O)=O)c(F)c2)NC1=O
33 | 164 | CN1Cc2c(ncnc2N2CCC3(CC2)CCN(S(N)(=O)=O)C3)NC1=O
34 | 773 | CN1Cc2c(ncnc2N2CCC(CCNS(N)(=O)=O)CC2)NC1=O
35 | 669 | CN1Cc2c(ncnc2N2CCC(C)(CCNS(N)(=O)=O)CC2)NC1=O
36 | 3.7 | CN1Cc2c(ncnc2N2CCC(C)(CNS(N)(=O)=O)CC2)NC1=O
37 | 236 | CN1Cc2c(ncnc2N2CCC(C)(NS(N)(=O)=O)CC2)NC1=O
38 | 1160 | CN1Cc2c(-c3ccc(CN(C)S(N)(=O)=O)cc3)ccnc2NC1=O
39 | 326 | CN1Cc2c(-c3ccc(CNS(N)(=O)=O)cc3)ccnc2N(C)C1=O
40 | 171 | CN1Cc2c(ncnc2-c2cccc(CNS(N)(=O)=O)c2)NC1=O
41 | 525 | CN1Cc2c(-c3cccc(CNS(N)(=O)=O)c3)ccnc2NC1=O
42 | 45 | CN1Cc2c(NCc3ccc(NS(N)(=O)=O)cc3)ncnc2NC1=O
43 | 389 | CN1Cc2c(-c3ccc(CNS(N)(=O)=O)cc3)ccnc2NC1=O
44 | 759 | CN1Cc2c(ncnc2N2CCC(NS(N)(=O)=O)CC2)NC1=O
45 | 360 | CN1Cc2c(ncnc2-c2cccc(NS(N)(=O)=O)c2)NC1=O
46 | 7460 | NS(=O)(=O)Nc1cccc(-c2ccnc3c2CN(C2CC2)C(=O)N3)c1
47 | 452 | CN1Cc2c(ncnc2-c2ccc(CNS(N)(=O)=O)cc2)NC1=O
48 | 48 | CN1Cc2c(ncnc2N2CCC(CNS(N)(=O)=O)CC2)NC1=O

tested on: not listed separately; assay: Metabolic stability in human liver microsomes assessed as compound remaining at 1 uM after 30 mins; format: ADME, Microsome; settings: read-out: Stability

Row | remaining at 0.5 h, 1 µM [%] | SMILES
49 | 86.9 | CN1Cc2c(-c3ccc(CNS(N)(=O)=O)c(F)c3)ccnc2NC1=O
50 | 85.9 | CN1Cc2c(ncnc2N2CCC(C)(CNS(N)(=O)=O)CC2)NC1=O

tested on: not listed separately; assay: Metabolic stability in rat liver microsomes assessed as compound remaining at 1 uM after 30 mins; format: ADME, Microsome; settings: read-out: Stability

Row | remaining at 0.5 h, 1 µM [%] | SMILES
51 | 86.7 | CN1Cc2c(-c3ccc(CNS(N)(=O)=O)c(F)c3)ccnc2NC1=O
52 | 82.3 | CN1Cc2c(ncnc2N2CCC(C)(CNS(N)(=O)=O)CC2)NC1=O

tested on: not listed separately; assay: Metabolic stability in mouse liver microsomes assessed as compound remaining at 1 uM after 30 mins; format: ADME, Microsome; settings: read-out: Stability

Row | remaining at 0.5 h, 1 µM [%] | SMILES
53 | 91.1 | CN1Cc2c(-c3ccc(CNS(N)(=O)=O)c(F)c3)ccnc2NC1=O
54 | 96.4 | CN1Cc2c(ncnc2N2CCC(C)(CNS(N)(=O)=O)CC2)NC1=O

target: T3, CYP1A2 (Homo sapiens, UniProt P05177); assay: Inhibition of CYP1A2 (unknown origin) assessed as remaining activity at 10 uM relative to control; format: ADME; settings: read-out: Activity
T3 sequence (P05177 whole entry): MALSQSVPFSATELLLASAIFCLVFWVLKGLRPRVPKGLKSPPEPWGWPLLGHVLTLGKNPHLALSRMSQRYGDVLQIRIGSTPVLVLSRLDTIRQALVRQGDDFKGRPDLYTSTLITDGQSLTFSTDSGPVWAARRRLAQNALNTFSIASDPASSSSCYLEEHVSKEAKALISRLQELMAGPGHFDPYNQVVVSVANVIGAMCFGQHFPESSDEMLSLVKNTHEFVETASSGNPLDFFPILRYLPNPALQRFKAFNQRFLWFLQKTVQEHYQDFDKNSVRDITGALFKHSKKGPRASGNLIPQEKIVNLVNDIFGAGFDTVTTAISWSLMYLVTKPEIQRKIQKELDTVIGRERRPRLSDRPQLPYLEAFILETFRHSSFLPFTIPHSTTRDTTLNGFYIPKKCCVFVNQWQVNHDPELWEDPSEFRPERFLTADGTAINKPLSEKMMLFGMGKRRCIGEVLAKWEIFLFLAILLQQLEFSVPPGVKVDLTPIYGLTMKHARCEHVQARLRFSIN

Row | activity at 10 µM [%] | SMILES
55 | > 100 | CN1Cc2c(-c3ccc(CNS(N)(=O)=O)c(F)c3)ccnc2NC1=O
56 | 94.3 | CN1Cc2c(ncnc2N2CCC(C)(CNS(N)(=O)=O)CC2)NC1=O

target: CYP2C9 (Homo sapiens, UniProt P11712); assay: Inhibition of CYP2C9 (unknown origin) assessed as remaining activity at 10 uM relative to control; format: ADME; settings: read-out: Activity
Sequence (P11712 whole entry): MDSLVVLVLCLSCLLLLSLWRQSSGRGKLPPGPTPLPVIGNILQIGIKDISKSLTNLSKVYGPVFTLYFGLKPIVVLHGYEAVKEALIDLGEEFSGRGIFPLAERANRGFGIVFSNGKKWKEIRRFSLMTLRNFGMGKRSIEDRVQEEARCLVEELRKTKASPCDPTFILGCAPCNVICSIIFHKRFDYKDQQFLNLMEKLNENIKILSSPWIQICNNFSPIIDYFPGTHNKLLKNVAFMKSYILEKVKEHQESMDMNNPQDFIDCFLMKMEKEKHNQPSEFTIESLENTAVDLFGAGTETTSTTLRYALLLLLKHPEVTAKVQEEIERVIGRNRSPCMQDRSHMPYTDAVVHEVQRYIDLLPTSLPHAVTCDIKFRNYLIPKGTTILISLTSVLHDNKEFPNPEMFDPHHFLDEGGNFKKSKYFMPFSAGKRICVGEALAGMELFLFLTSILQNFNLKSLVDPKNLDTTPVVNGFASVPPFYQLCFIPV

Row | activity at 10 µM [%] | SMILES
57 | > 100 | CN1Cc2c(-c3ccc(CNS(N)(=O)=O)c(F)c3)ccnc2NC1=O
58 | 89.4 | CN1Cc2c(ncnc2N2CCC(C)(CNS(N)(=O)=O)CC2)NC1=O

target: CYP2C19 (Homo sapiens, UniProt P33261); assay: Inhibition of CYP2C19 (unknown origin) assessed as remaining activity at 10 uM relative to control; format: ADME; settings: read-out: Activity
Sequence (P33261 whole entry): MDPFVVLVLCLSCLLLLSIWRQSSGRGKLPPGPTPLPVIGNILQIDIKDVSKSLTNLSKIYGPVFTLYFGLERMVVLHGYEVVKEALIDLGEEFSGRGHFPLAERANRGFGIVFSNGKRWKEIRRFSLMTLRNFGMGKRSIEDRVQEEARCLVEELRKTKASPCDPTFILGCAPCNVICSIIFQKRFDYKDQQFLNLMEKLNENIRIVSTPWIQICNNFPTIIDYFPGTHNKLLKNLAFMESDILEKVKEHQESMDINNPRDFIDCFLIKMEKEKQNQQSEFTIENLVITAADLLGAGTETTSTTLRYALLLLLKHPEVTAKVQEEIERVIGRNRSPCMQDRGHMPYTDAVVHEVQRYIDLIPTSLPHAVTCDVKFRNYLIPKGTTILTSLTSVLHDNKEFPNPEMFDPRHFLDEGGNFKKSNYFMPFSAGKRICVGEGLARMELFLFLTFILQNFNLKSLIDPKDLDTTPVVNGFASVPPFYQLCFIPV

Row | activity at 10 µM [%] | SMILES
59 | > 100 | CN1Cc2c(-c3ccc(CNS(N)(=O)=O)c(F)c3)ccnc2NC1=O
60 | > 100 | CN1Cc2c(ncnc2N2CCC(C)(CNS(N)(=O)=O)CC2)NC1=O

target: CYP2D6 (Homo sapiens, UniProt P10635); assay: Inhibition of CYP2D6 (unknown origin) assessed as remaining activity at 10 uM relative to control; format: ADME; settings: read-out: Activity
Sequence (P10635 whole entry): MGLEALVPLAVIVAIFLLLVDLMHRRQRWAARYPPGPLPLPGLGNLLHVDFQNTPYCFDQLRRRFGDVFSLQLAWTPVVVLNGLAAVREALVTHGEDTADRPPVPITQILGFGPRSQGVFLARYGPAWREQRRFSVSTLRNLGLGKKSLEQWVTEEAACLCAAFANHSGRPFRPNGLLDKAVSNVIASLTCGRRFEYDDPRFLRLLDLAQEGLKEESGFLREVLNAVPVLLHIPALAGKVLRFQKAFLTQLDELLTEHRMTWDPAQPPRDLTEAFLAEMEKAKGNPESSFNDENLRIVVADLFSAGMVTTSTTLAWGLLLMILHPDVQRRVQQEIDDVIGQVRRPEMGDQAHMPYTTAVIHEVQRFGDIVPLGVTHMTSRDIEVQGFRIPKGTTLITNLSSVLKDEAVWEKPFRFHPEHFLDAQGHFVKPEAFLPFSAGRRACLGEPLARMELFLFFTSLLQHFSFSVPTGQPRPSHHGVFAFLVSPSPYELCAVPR

Row | activity at 10 µM [%] | SMILES
61 | > 100 | CN1Cc2c(-c3ccc(CNS(N)(=O)=O)c(F)c3)ccnc2NC1=O
62 | 90.9 | CN1Cc2c(ncnc2N2CCC(C)(CNS(N)(=O)=O)CC2)NC1=O

target: CYP3A4 (Homo sapiens, UniProt P08684); assay: Inhibition of CYP3A4 (unknown origin) assessed as remaining activity at 10 uM relative to control; format: ADME; settings: read-out: Activity
Sequence (P08684 whole entry): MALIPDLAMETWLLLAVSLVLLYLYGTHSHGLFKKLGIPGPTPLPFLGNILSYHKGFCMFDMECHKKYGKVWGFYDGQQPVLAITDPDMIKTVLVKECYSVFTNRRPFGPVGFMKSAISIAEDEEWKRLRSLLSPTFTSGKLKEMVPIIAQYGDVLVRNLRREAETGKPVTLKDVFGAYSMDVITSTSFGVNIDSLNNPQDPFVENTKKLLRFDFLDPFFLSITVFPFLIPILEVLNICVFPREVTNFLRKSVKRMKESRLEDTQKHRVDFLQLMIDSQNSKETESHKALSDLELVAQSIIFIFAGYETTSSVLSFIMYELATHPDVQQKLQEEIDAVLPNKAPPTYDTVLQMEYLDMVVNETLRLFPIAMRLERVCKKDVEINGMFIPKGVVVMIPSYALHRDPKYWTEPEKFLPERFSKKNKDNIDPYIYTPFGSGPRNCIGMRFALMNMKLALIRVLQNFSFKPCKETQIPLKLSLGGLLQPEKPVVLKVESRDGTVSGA

Row | activity at 10 µM [%] | SMILES
63 | > 100 | CN1Cc2c(-c3ccc(CNS(N)(=O)=O)c(F)c3)ccnc2NC1=O
64 | 89.7 | CN1Cc2c(ncnc2N2CCC(C)(CNS(N)(=O)=O)CC2)NC1=O

Source: ChEMBL document CHEMBL5236568, “Discovery of 3,4-dihydropyrimido[4,5-d]pyrimidin-2(1H)-one and 3,4-dihydropyrido[2,3-d]pyrimidin-2(1H)-one derivatives as novel ENPP1 inhibitors” (Bioorg Med Chem Lett, 2022)
